In PubChem BioAssay (NCI) one finds GI50 and TGI data, which are given here for 21 compounds.

“And” between values parts separate entries of the source, which are not always exact repeats. Identical values can stand only once.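 Values below derive from 48-hour exposures of cells grown in 96-well plates, with endpoints linearly interpolated between the two concentrations bracketing the appropriate inhibition level. GI50 is the concentration that inhibits growth by half. TGI marks complete inhibition of growth.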

Test systems include MDA-MB-231 breast; PC-3 prostate; MCF7 breast; MDA-N.
Holding throughout (experiment): NCI anticancer screen, dose series, 48 h

On to `COc1ccc(-c2ccc(=O)oc2-c2cc(OC)c(OC)c(OC)c2)cc1O`, for which the figures for the GI50 with MDA-MB-231 breast, with PC-3 prostate and with MCF7 breast were 0.0613 µM, 0.0183 µM and less than 0.01 µM, respectively. For the same compound, the TGI with MDA-MB-231 breast, in the assay with PC-3 prostate and in the assay with MCF7 breast was more than 100 µM each time.

`COc1cccc(NC(=O)c2ccc(C(F)(F)F)nc2Nc2ccc(Cl)cc2C)c1`: the GI50 in the assay with MDA-MB-231 breast is 10.4 µM; in the assay with PC-3 prostate it was 4.36 µM; with MCF7 breast it was 7.96 µM. The TGI is 23.3 µM in the assay on MDA-MB-231 breast, 17.9 µM with PC-3 prostate and 47.7 µM in the assay with MCF7 breast.

Consider `CCCN(CCC)c1ccc(C=O)c(OC)c1`, for which the GI50 was 29.1 µM with PC-3 prostate and 19.1 µM in the assay on MCF7 breast. Also, the TGI in the assay on PC-3 prostate is more than 100 µM; in the assay on MCF7 breast it was 81.3 µM.

For the compound `COc1cc(/C=C\c2cc(/C=C\c3ccc(O)c(OC)c3)n(C(=O)Nc3ccc(C(F)(F)F)cc3)n2)ccc1O`, the GI50 with MDA-MB-231 breast was 3.06 µM; in the assay with PC-3 prostate, 3.21 µM; in the assay with MCF7 breast it was 1.97 µM. For the same compound, the TGI in the assay on MDA-MB-231 breast was determined as 9.62 µM; with PC-3 prostate it was 13.5 µM; with MCF7 breast, 10.7 µM.

Consider `O=C1c2ccccc2C(=O)c2c1c(NCCNCCO)c1cc[nH]c1c2NCCNCCO`, for which the GI50 is 4.15 µM in the assay with MDA-MB-231 breast, 3.22 µM in the assay with PC-3 prostate and 1.35 µM with MCF7 breast. Moreover, the TGI was 18.9 µM in the assay on MDA-MB-231 breast and more than 25.6 µM with PC-3 prostate.

Consider `Cn1c(-c2c(N)n(Cc3ccc(Cl)cc3)c3nc(C#N)c(C#N)nc23)nc2ccccc21`, for which the GI50 with MDA-MB-231 breast was 1.69 µM; in the assay with PC-3 prostate, 4.62 µM; with MCF7 breast, 3.94 µM. For the same compound, the TGI in the assay on MDA-MB-231 breast is 9.41 µM; with PC-3 prostate, more than 50 µM; in the assay with MCF7 breast, more than 50 µM.

Turning to `Cc1cc(Cl)ccc1OCC(=O)Oc1c(Cl)c(Cl)c(Cl)c(Cl)c1Cl`, the TGI was 38.1 µM in the assay on MDA-MB-231 breast, 80.1 µM with PC-3 prostate, 96.7 µM with MCF7 breast and 74.5 µM in the assay on MDA-N.

As for `CC(C)C(OC(=O)c1cc(NC(=S)c2ccccc2)ccc1Cl)C(C)C`, the TGI in the assay on MDA-MB-231 breast is 57.4 µM; in the assay with PC-3 prostate, 38.4 µM; with MCF7 breast, more than 100 µM; in the assay on MDA-N, 39.8 µM.

Consider `CC(=O)OC1CC(C)c2c1ncnc2N1CCN(C(=O)OC(C)(C)C)CC1` (stereo not given), for which the GI50 in the assay on MDA-MB-231 breast was 42.8 µM; in the assay on PC-3 prostate, 38.7 µM; in the assay with MCF7 breast, 39.1 µM. In addition, the TGI in the assay with MDA-MB-231 breast, in the assay with PC-3 prostate and with MCF7 breast was more than 100 µM in each case.

In the case of `COc1cc2c3c(n(CCCn4cccn4)c(=O)c2cc1OC)-c1cc2c(cc1C3=O)OCO2`, the GI50 with MDA-MB-231 breast was 8.65 µM; in the assay on PC-3 prostate, 16.3 µM; in the assay with MCF7 breast it was 0.523 µM. For the same compound, the results for the TGI in the assay with MDA-MB-231 breast, in the assay on PC-3 prostate and with MCF7 breast were 35.5 µM, more than 100 µM and more than 55.2 µM, respectively.

For the compound `CN(C)c1ccc2c(SCC(=O)OCC(=O)[C@@]3(O)CC[C@H]4[C@@H]5CCC6=CC(=O)C=C[C@]6(C)[C@H]5C(=O)C[C@@]43C)c3ccc(N(C)C)cc3nc2c1`, the TGI with MDA-MB-231 breast is more than 93.8 µM; in the assay with PC-3 prostate, more than 100 µM; with MCF7 breast it was more than 100 µM; with MDA-N, more than 100 µM.

Take `CCCCCCCCCCCCCCCC[N+](C)(C)C`: the GI50 in the assay on MDA-MB-231 breast is 0.169 µM and 1.38 µM; with PC-3 prostate, 0.15 µM; in the assay on MCF7 breast, 0.313 µM and 1.86 µM. Further, the TGI is 0.405 µM and 3.55 µM with MDA-MB-231 breast; 0.376 µM in the assay on PC-3 prostate; 1.44 µM and 5.2 µM in the assay with MCF7 breast.

`CNC1=C(Br)C(=O)C2=C(C1=O)C1C3=C(C(=O)C=CC3=O)C2c2ccccc21` (stereo not given): the GI50 in the assay on MDA-MB-231 breast was 2.94 µM; with PC-3 prostate, 1.38 µM; in the assay on MCF7 breast, 2.25 µM. Further, the TGI in the assay with MDA-MB-231 breast is 4.93 µM; in the assay on MCF7 breast it was 5.62 µM.

Take `O=C(Oc1ccccc1Cl)c1cccnc1Nc1ccnc(C(F)(F)F)c1`: the results for the GI50 in the assay on MDA-MB-231 breast, with PC-3 prostate and in the assay on MCF7 breast were 11.9 µM, 17.8 µM and 3.66 µM, respectively. Further, the TGI came out at 46.7 µM in the assay on MDA-MB-231 breast, 36.3 µM in the assay with PC-3 prostate and 17.5 µM in the assay on MCF7 breast.

As for `COc1cc([N+](=O)[O-])c(S(=O)(=O)O)cc1-n1nc(-c2ccccc2)n[n+]1-c1cc(S(=O)(=O)[O-])c([N+](=O)[O-])cc1OC`, the TGI in the assay with MDA-MB-231 breast, in the assay on PC-3 prostate, with MCF7 breast and with MDA-N was more than 100 µM in each case.

As to `S=C(S)NCCCn1ccnc1`, the TGI in the assay with MDA-MB-231 breast, in the assay with PC-3 prostate, with MCF7 breast and in the assay with MDA-N was more than 100 µM in each case.

On to `CO/N=C(\COc1ccc2c(=O)cc(-c3ccccc3)oc2c1)c1ccc(OC)cc1`, for which, in the assay with MDA-MB-231 breast, the GI50 was 48.4 µM and the TGI is more than 100 µM. Also, in the assay with PC-3 prostate, the GI50 is more than 100 µM and the TGI was more than 100 µM.

On to `C=C(C)[C@@H]1CC[C@]2(c3ncc(C)o3)CC[C@]3(C)[C@H](CC[C@@H]4[C@@](C)(CCC#N)[C@H](C(=C)C)CC[C@]43C)[C@@H]12`, for which the GI50 is 2.53 µM in the assay on MDA-MB-231 breast, 1.83 µM in the assay on PC-3 prostate and 2.87 µM in the assay with MCF7 breast. Besides, the TGI in the assay with MDA-MB-231 breast was 6.41 µM; with PC-3 prostate, 4 µM; with MCF7 breast it was 10.5 µM.

In the case of `CCCCn1c(=O)c(/C=C/C(=O)/C=C/c2ccc(O)c(OC)c2)cc2ccc(Cl)cc21`, the GI50 with MDA-MB-231 breast is 2.51 µM; with PC-3 prostate, 1.89 µM; with MCF7 breast, 1.88 µM. The TGI came out at 7.73 µM in the assay with MDA-MB-231 breast, 4.71 µM with PC-3 prostate and 10.8 µM in the assay with MCF7 breast.

With `COc1ccc(-n2nc(C)c3c(Nc4ccc(NC(=O)Nc5cc(C(F)(F)F)ccc5F)cc4)ncnc32)cc1`, the values for the GI50 in the assay on MDA-MB-231 breast, with PC-3 prostate and in the assay with MCF7 breast were 1.61 µM, 2.13 µM and 2.69 µM, respectively. In addition, the TGI in the assay on MDA-MB-231 breast turned out to be 3.55 µM; in the assay with PC-3 prostate, 6.85 µM; in the assay with MCF7 breast, 14.7 µM.

Turning to `CN1CCN(c2ccc(NC3=C(Cl)C(=O)c4ncccc4C3=O)cc2C(F)(F)F)CC1`, the GI50 in the assay with MDA-MB-231 breast is 1.69 µM; in the assay with PC-3 prostate it was 2.23 µM; with MCF7 breast, 1.7 µM. The TGI stood at 5.02 µM in the assay on MDA-MB-231 breast, 6.85 µM in the assay with PC-3 prostate and 4.23 µM in the assay on MCF7 breast.
